The target in assay [1] is T1, Protein S/APC cofactor activity (Homo sapiens, UniProt P07225).
T1 construct: host or cells: plasma
T1 sequence (P07225 41-676 limits assumed): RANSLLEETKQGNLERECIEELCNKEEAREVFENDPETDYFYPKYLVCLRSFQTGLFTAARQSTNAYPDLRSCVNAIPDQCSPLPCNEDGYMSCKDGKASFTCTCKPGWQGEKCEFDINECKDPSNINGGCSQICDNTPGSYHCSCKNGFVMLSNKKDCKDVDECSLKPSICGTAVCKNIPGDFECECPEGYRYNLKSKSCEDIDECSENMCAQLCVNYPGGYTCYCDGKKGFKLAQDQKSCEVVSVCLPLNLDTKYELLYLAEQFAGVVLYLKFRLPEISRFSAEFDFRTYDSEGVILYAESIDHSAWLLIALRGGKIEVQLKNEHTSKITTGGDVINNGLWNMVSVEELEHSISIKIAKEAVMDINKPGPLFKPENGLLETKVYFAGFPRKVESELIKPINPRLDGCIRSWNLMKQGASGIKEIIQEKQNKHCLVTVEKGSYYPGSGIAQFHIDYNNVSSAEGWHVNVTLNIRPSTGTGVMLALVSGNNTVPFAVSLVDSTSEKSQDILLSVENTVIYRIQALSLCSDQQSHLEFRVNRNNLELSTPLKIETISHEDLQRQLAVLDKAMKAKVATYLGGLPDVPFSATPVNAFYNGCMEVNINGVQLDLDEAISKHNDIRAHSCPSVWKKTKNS
Nature of the assay: CAT assay: Protein S/APC-dependent thrombin generation in FVIII-inhibited plasma. The note with it: Protein S-depleted plasma supplemented with APC and Protein S, FVIII-inhibited. It counts as biochemical. The procedure:
Peptides also were tested for improvement of Protein S/APC-dependent thrombin generation in hemophilic plasma using a CAT assay. Protein S enhances the anticoagulation of APC in plasma. The CAT assay quantifies the effect of Protein S on APC-mediated thrombin generation initiated via the extrinsic coagulation pathway (Nicolaes, Blood Coagul. Fibrinolysis, 8:28 (1997)). APC (35 nM) and Protein S (25 nM) was added to Protein 5-depleted plasma, and plasma samples were incubated with high titer heat inactivated anti-human FVIII plasma raised in goat (4490 BU/ml; Baxter BioScience, Vienna, Austria; 50 BU/ml final plasma concentration). Thrombin formation in plasma was followed by calibrated automated thrombography (CAT) in a Fluoroskan Ascent® reader (Thermo Labsystems, Helsinki, Finland) and quantified via the thrombin peak-height. Thrombin generation was determined at high tissue factor (TF) concentration in the absence and in the presence of APC at a concentration that reduces the peak height to ˜20%. The inhibitory effect of peptides described herein on the APC cofactor activity of Protein S (PS) in plasma was measured in FVIII-inhibited pooled normal plasma supplemented with APC. Complete (100%) Protein S/APC inhibition is the height of the thrombin peak without addition of APC. Lack of (0%) PS/APC inhibition correlates to the thrombin peak-height value with a certain amount of APC. Peptides were ranked by their normalized values in comparison to the mean of wild-type controls including SD at two defined peptide concentrations (EC50 and EC90).
Exemplary conditions for the CAT assay are as follows. Protein S-depleted plasma was supplemented with 35 nM APC and […]. Stock APC was diluted with 10 pM TF and 15 μM PL. Lyophilized peptides were dissolved in 100% DMSO to a 5 mM stock concentration and further diluted with HNABSA5-buffer+0.1% Tween80. […] In a 96 well Immulon 2HB (transparent), U-bottom (ThermoElectron) plate was mixed 80 μl plasma (+CTI+Z994-5), 10 μl peptide dilution, and 10 μl APC-TF-PL-MIX or Calibrator. Thrombin generation was initiated by dispensing 20 μL of FluCa reagent containing fluorogenic substrate and HEPES-buffered CaCl2 (100 mM) into each well. Fluorescence intensity was recorded at 37° C. using the Fluoroskan Ascent® reader (filters 390 nm excitation and 460 nm emission). The parameters of the resulting thrombin generation curves were calculated using the Thrombinoscope™ software (Thrombinoscope) and thrombin calibrator to correct for inner filter and substrate consumption effects (Hemker, Pathophysiol Haemost Thromb, 33: 415 (2003)).

The next assay has as its target T2, Protein S (Homo sapiens, UniProt P07225).
T2 sequence (P07225 41-676 limits assumed): T1 sequence (P07225 41-676 limits assumed)
Nature of the assay: LANCE IC50 assay (competition TR-FRET) with tracer JBS0684. Type of assay: binding. The method, then:
Peptides also were characterized in a competition, homogenous europium-based TR-FRET assay (LANCE IC50 assay) using JBS0684 as a tracer (i.e., competitor for Protein S binding). The following reagents were mixed together in a Perkin-Elmer ProxiPlate MTP well (indicated concentration is the final concentration): Eu-labeled Protein S (10 nM), Ulight™-labeled Streptavidin (100 nM), tracer (JBS0684 (300 nM)), and peptide (titrated in three-fold dilution steps). The final volume was 50 μl/well. The reaction mix was incubated for 1 hour at room temperature, then the fluorescence emission at 665 nm was recorded on a multi-mode reader (SpectraMax® M5, Molecular Devices) using the following instrument settings: Ex 340 nm, Em 665 nm, delay 50 μsec, integration 100 μsec, reads 100. Binding of tracer peptides to soluble europium-labeled Protein S was detected by Streptavidin labeled with an acceptor fluorophor (ULight™). Inhibition of tracer-binding to Protein S by a non-biotinylated peptide results in a decrease of TR-FRET between the Eu-labeled Protein S and ULight™-labeled Streptavidin. IC50 values were obtained from peptide titration curves at constant tracer concentration using non-linear regression of the fluorescence emission signals at 665 nm.

Setting [2] is: Table 4, multiple substitutions in JBS2572, read-out: LANCE IC50.

Molecules are shown by their SMILES. Where two headings read alike, the source gives them in different places. Non-standard residues stand in square brackets, D forms with d. Residues, ends and D or L forms follow the SMILES beside them. Tle = CC(C)(C)[C@H](N)C(=O)O

A word on the EC50: it is the concentration needed to bring the measured effect to its halfway point. Lower therefore signals a more potent agent. The molecule `CC(=O)N[C@H](C(=O)NCC(=O)N[C@@H](Cc1c[nH]cn1)C(=O)N[C@H](C(=O)N[C@@H](CO)C(=O)N[C@@H](C)C(=O)NCC(=O)N[C@@H](Cc1c[nH]c2ccccc12)C(=O)N[C@@H](Cc1ccc(O)cc1)C(=O)N[C@@H](CC(=O)O)C(=O)N[C@@H](Cc1ccc(O)cc1)C(=O)N[C@@H](CC(N)=O)C(=O)N[C@@H](Cc1ccccc1)C(=O)N[C@@H](CC(=O)O)C(=O)N[C@@H](Cc1c[nH]cn1)C(=O)N[C@@H](Cc1ccc(O)cc1)C(=O)N[C@@H](CCCNC(=N)N)C(=O)N[C@@H](CCC(=O)O)C(=O)N[C@@H](Cc1ccccc1)C(=O)N[C@H](C(N)=O)[C@@H](C)O)C(C)C)[C@@H](C)O` [JBS2512] (Ac-TGHVSAGWYDYNFDHYREFT-NH2) came in with an EC50 in assay [1] of 24 nM.
As usually defined, the IC50 is the concentration that inhibits the measured activity by half. For the molecule `CC(=O)N[C@H](C(=O)NCC(=O)N[C@@H](CC(C)C)C(=O)N[C@H](C(=O)N[C@@H](CCC(=O)O)C(=O)N[C@@H](C)C(=O)NCC(=O)N[C@@H](Cc1c[nH]c2ccccc12)C(=O)N[C@@H](Cc1ccc(O)cc1)C(=O)N[C@@H](CC(=O)O)C(=O)N[C@@H](Cc1ccc(O)cc1)C(=O)N[C@@H](CC(N)=O)C(=O)N[C@@H](Cc1ccccc1)C(=O)N[C@@H](CC(=O)O)C(=O)N[C@H](C(=O)N[C@@H](Cc1ccc(O)cc1)C(=O)N[C@@H](CCCNC(=N)N)C(=O)N[C@@H](CCC(=O)O)C(=O)N[C@@H](Cc1ccccc1)C(=O)N[C@H](C(N)=O)[C@@H](C)O)[C@@H](C)O)C(C)C)[C@@H](C)O` [JBS3192] (Ac-TGLVEAGWYDYNFDTYREFT-NH2), on Protein S (setting [2]), the IC50 was determined as 2.8 nM.
As for `CC(=O)N[C@H](C(=O)NCC(=O)N[C@@H](CC(C)C)C(=O)N[C@H](C(=O)N[C@@H](CCC(=O)O)C(=O)N[C@@H](C)C(=O)NCC(=O)N[C@@H](Cc1c[nH]c2ccccc12)C(=O)N[C@@H](Cc1ccc(O)cc1)C(=O)N[C@@H](CC(=O)O)C(=O)N[C@@H](Cc1ccc(O)cc1)C(=O)N[C@@H](CC(N)=O)C(=O)N[C@@H](Cc1ccccc1)C(=O)N[C@@H](CC(=O)O)C(=O)N[C@H](C(=O)N[C@@H](Cc1ccc(O)cc1)C(=O)N[C@@H](CCCNC(=N)N)C(=O)N[C@@H](CCC(=O)O)C(=O)N[C@@H](Cc1ccccc1)C(=O)N[C@H](C(N)=O)[C@@H](C)O)C(C)C)C(C)C)[C@@H](C)O` [JBS3193] (Ac-TGLVEAGWYDYNFDVYREFT-NH2), at Protein S (setting [2]), the IC50 came out at 2.5 nM.
At Protein S, `CC(=O)N[C@H](C(=O)NCC(=O)N[C@@H](CC(C)C)C(=O)N[C@H](C(=O)N[C@@H](CO)C(=O)N[C@@H](C)C(=O)NCC(=O)N[C@@H](Cc1c[nH]c2ccccc12)C(=O)N[C@@H](Cc1ccc(O)cc1)C(=O)N[C@@H](CC(=O)O)C(=O)N[C@@H](Cc1ccc(O)cc1)C(=O)N[C@@H](CC(N)=O)C(=O)N[C@@H](CC(N)=O)C(=O)N[C@@H](CC(=O)O)C(=O)N[C@H](C(=O)N[C@@H](Cc1ccc(O)cc1)C(=O)N[C@@H](CCCNC(=N)N)C(=O)N[C@@H](CCC(=O)O)C(=O)N[C@@H](Cc1ccccc1)C(=O)N[C@H](C(N)=O)[C@@H](C)O)[C@@H](C)O)C(C)C)[C@@H](C)O` [JBS3194] (Ac-TGLVSAGWYDYNNDTYREFT-NH2) returned an IC50 of 1.8 nM.
With `CC(=O)N[C@H](C(=O)NCC(=O)N[C@@H](CC(C)C)C(=O)N[C@H](C(=O)N[C@@H](CO)C(=O)N[C@@H](C)C(=O)NCC(=O)N[C@@H](Cc1c[nH]c2ccccc12)C(=O)N[C@@H](Cc1ccc(O)cc1)C(=O)N[C@@H](CC(=O)O)C(=O)N[C@@H](Cc1ccc(O)cc1)C(=O)N[C@@H](CC(N)=O)C(=O)N[C@@H](CC(N)=O)C(=O)N[C@@H](CC(=O)O)C(=O)N[C@H](C(=O)N[C@@H](Cc1ccc(O)cc1)C(=O)N[C@@H](CCCNC(=N)N)C(=O)N[C@@H](CCC(=O)O)C(=O)N[C@@H](Cc1ccccc1)C(=O)N[C@H](C(N)=O)[C@@H](C)O)C(C)C)C(C)C)[C@@H](C)O` [JBS3195] (Ac-TGLVSAGWYDYNNDVYREFT-NH2), the IC50 on Protein S (setting [2]) was determined as 2 nM.
As to `CSCC[C@H](NC(=O)[C@H](Cc1ccc(O)cc1)NC(=O)[C@H](Cc1c[nH]cn1)NC(=O)[C@H](CC(=O)O)NC(=O)[C@H](CC(N)=O)NC(=O)[C@H](CC(N)=O)NC(=O)[C@H](Cc1ccc(O)cc1)NC(=O)[C@H](CC(=O)O)NC(=O)[C@H](Cc1ccc(O)cc1)NC(=O)[C@H](Cc1c[nH]c2ccccc12)NC(=O)CNC(=O)[C@H](C)NC(=O)[C@H](CO)NC(=O)[C@@H](NC(=O)[C@H](CC(C)C)NC(=O)CNC(=O)[C@@H](NC(C)=O)[C@@H](C)O)C(C)C)C(=O)N[C@@H](CCC(=O)O)C(=O)N[C@@H](Cc1ccccc1)C(=O)N[C@H](C(N)=O)[C@@H](C)O` [JBS3198] (Ac-TGLVSAGWYDYNNDHYMEFT-NH2), the IC50 at Protein S (setting [2]) was 2.5 nM.
On to `CC(=O)N[C@H](C(=O)NCC(=O)N[C@@H](CC(C)C)C(=O)N[C@H](C(=O)N[C@@H](CO)C(=O)N[C@@H](C)C(=O)NCC(=O)N[C@@H](Cc1c[nH]c2ccccc12)C(=O)N[C@@H](Cc1ccc(O)cc1)C(=O)N[C@@H](CC(=O)O)C(=O)N[C@@H](Cc1ccc(O)cc1)C(=O)N[C@@H](CC(N)=O)C(=O)N[C@@H](Cc1ccccc1)C(=O)N[C@@H](CC(=O)O)C(=O)N[C@H](C(=O)N[C@@H](Cc1ccc(O)cc1)C(=O)N[C@@H](CCCNC(=N)N)C(=O)N[C@@H](CCC(=O)O)C(=O)N[C@@H](Cc1ccccc1)C(=O)N[C@H](C(N)=O)[C@@H](C)O)[C@@H](C)O)C(C)(C)C)[C@@H](C)O` [JBS3202, Ac-TGL-Tle-SAGWYDYNFDTYREFT-NH2] (Ac-TGL[Tle]SAGWYDYNFDTYREFT-NH2), for which the IC50 at Protein S (setting [2]) worked out at 1.6 nM.

The record behind these values is patent US10124033B2, “Peptides and methods of use” (BAXALTA INCORPORATED, priority 2014, dated 2018).
